Patent US8367716B2 (priority 2003, dated 2013)

Tested on: S. aureus
Assay: Tube agglutination assay and light microscopy (cell-to-cell aggregation)
Assay type: cell-based, Staphylococcus aureus
Procedure: Tube agglutination assay and light microscopy. Colonies from a 18 h blood agar plate were inoculated into 1 ml PBS to make a 0.5 McFarland standard containing ˜5×10^8 cfu/ml (confirmed by plate count). A 5 μl aliquot from the 0.5 McFarland standard was then inoculated into 5 ml polystyrene tubes containing 1 ml TSB representing ˜10^5 cfu/ml (confirmed by plate count). These tubes were inoculated either with 50 μl c-di-GMP to give a 200 μM c-di-GMP final concentration representing a “treated” sample or inoculated with 50 μl 0.9% NaCl as a control and representing an “untreated” control. Cultures were incubated at 37° C. for 24 h statically. Following incubation, these cultures were examined macroscopically and microscopically (Zeiss Axioskop) for the presence or absence of visible cell-to-cell clumping.

Nc1nc2c(ncn2C2OC3COP(=O)(O)OC4C(COP(=O)(O)OC3C2O)OC(n2cnc3c(=O)[nH]c(N)nc32)C4O)c(=O)[nH]1 (stereo not shown) [c-di-GMP, 3′,5′-cyclic diguanylic acid]
cell-to-cell interactions and clumping (Gram stain, light microscopy) (DK825, 200 μM): dramatically less cell-to-cell interactions and clumping | visible cell aggregation (macroscopic) (DK825, 200 μM, 24 h static): no obvious visible cell aggregation or pellet | visible cell aggregation (macroscopic) (bap mutant M556): inhibits cell aggregation | cell-to-cell interactions and clumping (Gram stain, light microscopy) (bovine mastitis strains V329, V299, V315): less intercellular interactions and clumping
